Measured values published in ChEMBL document CHEMBL6120941, “Discovery of SIRT1-Activating Hydrogen Sulfide Donating Derivatives for Efficient Resistant of Myocardial Ischemic Injury” (J Med Chem, 2024).
Calls of active or inactive are those of the source. No cut-off for these calls is given here.

Legend:
Rattus norvegicus [1] = assay: Cardioprotective activity in myocardial ischemia Sprague-Dawley rat model assessed as myocardial infarction area at 30 mg/kg, IG treated for 7 days consecutively followed by ISO administration daily for 2 days consecutively by TTC staining based analysis (reference value: 32.65 %); format: functional; conditions: time 9 day
H9c2 [2] = assay: Cardioprotective activity against CoCl2-induced cellular hypoxia injury in rat H9c2 cells assessed as ROS accumulation at 5 uM incubated for 24 hrs by DCFH-DA probe based analysis (reference value: 28.03 %); format: functional
H9c2 [3] = assay: Antioxidant activity against CoCl2-induced cellular hypoxia injury in rat H9c2 cells assessed as increase in hypoxia-reduced GSH level at 5 to 10 uM incubated for 24 hrs; format: functional, cell-based; conditions: dose 5-10 µM
H9c2 [4] = assay: Cardioprotective activity against CoCl2-induced cellular hypoxia injury in rat H9c2 cells assessed as increase in cell viability at 30 uM incubated for 24 hrs by CCK-8 assay; format: functional, cell-based
H9c2 [5] = assay: Cardioprotective activity against CoCl2-induced cellular hypoxia injury in rat H9c2 cells assessed as inhibition of CoCl2-induced morphological changes at 5 to 10 uM incubated for 24 hrs by fluorescence based analysis; format: functional, cell-based; conditions: dose 5-10 µM
H9c2 [6] = assay: Cardioprotective activity against CoCl2-induced cellular hypoxia injury in rat H9c2 cells assessed as preservation of nuclear morphology at 5 to 10 uM incubated for 24 hrs by Hoechst 33258 nuclear staining based analysis; format: functional, cell-based; conditions: dose 5-10 µM
H9c2 [7] = assay: Cardioprotective activity against CoCl2-induced cellular hypoxia injury in rat H9c2 cells assessed as increase in PGC1-alpha level at 5 to 10 uM incubated for 24 hrs by Western blot analysis; format: functional, cell-based; conditions: dose 5-10 µM
H9c2 [8] = assay: Cardioprotective activity against CoCl2-induced cellular hypoxia injury in rat H9c2 cells assessed as improvement in nuclear shrinkage at 5 to 10 uM incubated for 24 hrs by Hoechst 33258 nuclear staining based analysis; format: functional, cell-based; conditions: dose 5-10 µM
H9c2 [9] = assay: Cardioprotective activity against CoCl2-induced cellular hypoxia injury in rat H9c2 cells assessed as cell viability at 10 uM incubated for 24 hrs by CCK-8 assay (reference value: 51.80 +/- 2.58 %); format: functional; conditions: read-out: Activity
Rattus norvegicus [10] = assay: In vivo activation of SIRT1 in myocardial tissue of myocardial ischemia Sprague-Dawley rat model at 10 to 30 mg/kg, IG treated for 7 days consecutively followed by ISO administration daily for 2 days consecutively by Western blot analysis; format: functional, organism-based; conditions: dose 10-30 mg/kg, time 9.0 day
H9c2 [11] = assay: Cardioprotective activity against CoCl2-induced cellular hypoxia injury in rat H9c2 cells assessed as ROS accumulation at 10 uM incubated for 24 hrs by DCFH-DA probe based analysis (reference value: 28.03 %); format: functional
H9c2 [12] = assay: Cardioprotective activity against CoCl2-induced cellular hypoxia injury in rat H9c2 cells assessed as cell viability at 2.5 uM incubated for 24 hrs by CCK-8 assay (reference value: 51.80 +/- 2.58 %); format: functional; conditions: read-out: Activity
H9c2 [13] = assay: Antioxidant activity against CoCl2-induced cellular hypoxia injury in rat H9c2 cells assessed as decrease in hypoxia-induced MDA level at 5 to 10 uM incubated for 24 hrs; format: functional, cell-based; conditions: dose 5-10 µM
Rattus norvegicus [14] = assay: Cardioprotective activity in myocardial ischemia Sprague-Dawley rat model assessed as decrease in myocardial injury administered intragastrically for 7 days consecutively followed by ISO administration daily for 2 days consecutively by H and E/Masson staining based analysis; format: functional, organism-based; conditions: dose 10-30 mg/kg, route ig, time 9.0 day
H9c2 [15] = assay: Upregulation of SIRT1 mRNA level in CoCl2-induced cellular hypoxia injury in rat H9c2 cells at 5 to 10 uM incubated for 24 hrs by qPCR analysis; format: functional, cell-based; conditions: dose 5-10 µM
H9c2 [16] = assay: Antioxidant activity against CoCl2-induced cellular hypoxia injury in rat H9c2 cells assessed as increase in hypoxia-reduced SOD level at 5 to 10 uM incubated for 24 hrs; format: functional, cell-based; conditions: dose 5-10 µM
H9c2 [17] = assay: Cardioprotective activity against CoCl2-induced cellular hypoxia injury in rat H9c2 cells assessed as rate of apoptosis at 10 uM incubated for 24 hrs in presence of GSSG by flow cytometry (reference value: 19.5 %); format: functional
H9c2 [18] = assay: Antioxidant activity against CoCl2-induced cellular hypoxia injury in rat H9c2 cells assessed as decrease in hypoxia-induced LDH release at 5 to 10 uM incubated for 24 hrs; format: functional, cell-based; conditions: dose 5-10 µM
[19] = Induction of H2S […] activity in presence of GSSH; format: functional
H9c2 [20] = assay: Cardioprotective activity against CoCl2-induced cellular hypoxia injury in rat H9c2 cells assessed as inhibition of ROS-induced cell damage at 5 to 10 uM incubated for 24 hrs by fluorescence based analysis; format: functional; conditions: dose 5-10 µM
H9c2 [21] = assay: Induction of H2S release in rat H9c2 cells incubated for 24 hrs by AzMC probe based analysis; format: functional, cell-based; conditions: dose 1.25-10 µM
[22] = Induction of H2S release in PBS at pH 7.4 measured upto 60 mins by methylene blue method; format: functional
H9c2 [23] = assay: Cardioprotective activity against CoCl2-induced cellular hypoxia injury in rat H9c2 cells assessed as mitochondrial membrane potential at 10 uM incubated for 24 hrs by JC-1 staining based analysis (reference value: 48.08 %); format: functional
Rattus norvegicus [24] = assay: Cardioprotective activity in myocardial ischemia Sprague-Dawley rat model assessed as improvement in positional rearrangement at 10 to 30 mg/kg, IG treated for 7 days consecutively followed by ISO administration daily for 2 days consecutively by H and E/Masson staining based analysis; format: functional, organism-based; conditions: dose 10-30 mg/kg, time 9.0 day
[25] = target: T1, NAD-dependent protein deacetylase sirtuin-1 (Homo sapiens) (UniProt Q96EB6); assay: Activation of SIRT1 (unknown origin) using RHKK-ac-AMC as substrate incubated for 2 hrs by FDL assay relative to control; conditions: filed as activator
T1 sequence (whole entry): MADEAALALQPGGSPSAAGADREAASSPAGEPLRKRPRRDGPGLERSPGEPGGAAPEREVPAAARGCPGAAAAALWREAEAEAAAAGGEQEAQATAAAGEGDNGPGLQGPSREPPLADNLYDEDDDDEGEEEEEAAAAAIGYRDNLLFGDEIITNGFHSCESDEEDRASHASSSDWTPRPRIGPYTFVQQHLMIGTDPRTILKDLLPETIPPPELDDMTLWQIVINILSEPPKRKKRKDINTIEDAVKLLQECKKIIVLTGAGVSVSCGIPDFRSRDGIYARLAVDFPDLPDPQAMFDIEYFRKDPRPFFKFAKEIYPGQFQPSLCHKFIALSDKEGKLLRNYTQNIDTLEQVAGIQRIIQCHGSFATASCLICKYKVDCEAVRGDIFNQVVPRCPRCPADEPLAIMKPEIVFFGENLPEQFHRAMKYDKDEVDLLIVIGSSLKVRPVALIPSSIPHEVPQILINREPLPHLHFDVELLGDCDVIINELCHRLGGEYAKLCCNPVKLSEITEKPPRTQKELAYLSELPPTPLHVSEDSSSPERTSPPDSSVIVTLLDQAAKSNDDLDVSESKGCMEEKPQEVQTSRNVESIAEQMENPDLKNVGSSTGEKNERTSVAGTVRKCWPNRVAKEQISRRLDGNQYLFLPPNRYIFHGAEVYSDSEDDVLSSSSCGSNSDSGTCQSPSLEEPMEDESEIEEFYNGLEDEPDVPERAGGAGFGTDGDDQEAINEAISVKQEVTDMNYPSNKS

SMILES: C=CCSSCCC(=O)O[C@H]1CC[C@]2(C)[C@H]3C[C@@H](O)[C@@H]4[C@@H]([C@]5(C)CC[C@@H](C(C)(C)O)O5)CC[C@@]4(C)[C@]3(C)CC[C@H]2C1(C)C
- Activity (Rattus norvegicus [1]): 13.24%
- Activity (H9c2 [2]): 6.38%
- Activity (H9c2 [3]): Active
- Activity (H9c2 [4]): inactive
- inhibition (H9c2 [5]): Active
- Activity (H9c2 [6]): Active
- Activity (H9c2 [7]): Active
- Activity (H9c2 [8]): Active
- viability at 10 µM (H9c2 [9]): 97.9%
- Activity (Rattus norvegicus [10]): Active
- Activity (H9c2 [11]): 4.74%
- viability at 2.5 µM (H9c2 [12]): 87.8%
- Activity (H9c2 [13]): Active
- Activity (Rattus norvegicus [14]): Dose-dependent-effect
- Activity (H9c2 [15]): Active
- Activity (H9c2 [16]): Active
- Activity (H9c2 [17]): 8.01%
- Activity (H9c2 [18]): Active
- Activity [19]: 18.6%
- inhibition (H9c2 [20]): Active
- Activity (H9c2 [21]): Dose-dependent-effect; Exhibited Highest Release Efficiency Among Tested Compounds
- Activity [22]: 30.7 µM
- Activity (H9c2 [23]): 92.84%
- Activity (Rattus norvegicus [24]): Active
- Activity [25]: 177%
